Laboratory results reported in ChEMBL document CHEMBL4732086, “Targeting nuclear protein TDP-43 by cell division cycle kinase 7 inhibitors: A new therapeutic approach for amyotrophic lateral sclerosis” (Eur J Med Chem, 2021).
The source made the active and inactive calls. No cut-off for these calls is given here.

What was measured:
[1] = target: Serine/threonine-protein kinase pim-2 (Homo sapiens) (UniProt Q9P1W9); test: Inhibition of recombinant human GST-tagged PIM2 expressed in baculovirus expression system using serine/threonine-07 peptide as substrate at 10 uM by Z'-LYTE assay; conditions: time 60.0 min
[2] = target: T1, Interleukin-1 receptor-associated kinase 4 (Homo sapiens) (UniProt Q9NWZ3); test: Inhibition of recombinant human full length His-tagged IRAK4 expressed in baculovirus expression system using serine/threonine-07 peptide as substrate at 10 uM incubated for 60 mins in presence of ATP by Z'-LYTE assay
T1 sequence (whole entry): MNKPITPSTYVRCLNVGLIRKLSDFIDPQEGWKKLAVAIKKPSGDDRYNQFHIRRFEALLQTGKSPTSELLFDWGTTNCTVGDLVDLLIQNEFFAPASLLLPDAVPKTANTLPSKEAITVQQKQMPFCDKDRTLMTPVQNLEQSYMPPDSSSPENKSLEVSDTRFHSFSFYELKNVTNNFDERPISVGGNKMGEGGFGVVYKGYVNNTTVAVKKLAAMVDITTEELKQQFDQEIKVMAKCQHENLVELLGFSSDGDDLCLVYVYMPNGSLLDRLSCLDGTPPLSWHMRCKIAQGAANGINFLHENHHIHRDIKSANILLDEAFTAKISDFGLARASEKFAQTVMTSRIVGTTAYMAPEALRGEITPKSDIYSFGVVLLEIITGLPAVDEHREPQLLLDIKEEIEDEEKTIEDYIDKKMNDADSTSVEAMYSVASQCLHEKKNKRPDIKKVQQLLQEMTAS

[3] = target: Tyrosine-protein kinase Fyn (Homo sapiens) (UniProt P06241); test: Inhibition of recombinant human His-tagged Fyn expressed in baculovirus expression system using Tyr 02 peptide as substrate at 10 uM incubated for 60 mins in presence of ATP by Z'-LYTE assay
[4] = target: cAMP-dependent protein kinase catalytic subunit alpha (Homo sapiens) (UniProt P17612); test: Inhibition of recombinant human His-tagged PRKACA expressed in Escherichia coli expression system using serine/threonine-01 peptide as substrate at 10 uM by Z'-LYTE assay; conditions: time 60.0 min
[5] = target: T2, CDC7/DBF4 (Cell division cycle 7-related protein kinase/Activator of S phase kinase) (Homo sapiens) (UniProt Q9UBU7+O00311); test: Competitive inhibition of recombinant human full length N-terminal GST tagged CDC7/Dbf4 expressed in baculovirus infected Sf9 insect cells assessed as inhibition of substrate phosphorylation using PDKtide as substrate at 5 to 10 uM measured after 60 mins by ATP assay; conditions: dose 5-10 µM
[6] = target: RAC-alpha serine/threonine-protein kinase (Homo sapiens) (UniProt P31749); test: Inhibition of recombinant full length human His-tagged AKT1 using serine/threonine-06 peptide as substrate at 10 uM incubated for 60 mins in presence of ATP by Z'-LYTE assay
[7] = target: Mitogen-activated protein kinase 3 (Homo sapiens) (UniProt P27361); test: Inhibition of recombinant human full length GST-tagged MAPK3 expressed in Escherichia coli expression system using serine/threonine-03 peptide as substrate at 10 uM by Z'-LYTE assay; conditions: time 60.0 min
[8] = system: SH-SY5Y; test: Neuroprotective activity in human SH-SY5Y cells assessed as decrease in ethacrynic acid-induced TDP-43 phosphorylation preincubated for 1 hr followed by incubation with ethacrynic acid for 24 hrs measured at 10 uM by Western blot assay; assay type: functional, cell-based
[9] = target: Receptor-type tyrosine-protein kinase FLT3 (Homo sapiens) (UniProt P36888); test: Inhibition of recombinant human His-tagged Flt3 expressed in baculovirus expression system using Tyr 02 peptide as substrate at 10 uM incubated for 60 mins in presence of ATP by Z'-LYTE assay
[10] = target: T2, CDC7/DBF4 (Cell division cycle 7-related protein kinase/Activator of S phase kinase) (Homo sapiens); test: Inhibition of recombinant human GST tagged CDC7/Dbf4 expressed in baculovirus expression system at 10 uM by Z'-LYTE assay
[11] = target: Serine/threonine-protein kinase pim-1 (Homo sapiens) (UniProt P11309); test: Inhibition of recombinant human HIS-tagged PIM1 expressed in baculovirus expression system using serine/threonine-07 peptide as substrate at 10 uM by Z'-LYTE assay; conditions: time 60.0 min
[12] = target: Glycogen synthase kinase-3 alpha (Homo sapiens) (UniProt P49840); test: Inhibition of recombinant human full length GST-tagged GSK3A expressed in baculovirus expression system using serine/threonine-09 peptide as substrate at 10 uM incubated for 60 mins in presence of ATP by Z'-LYTE assay
[13] = target: T3, Serine/threonine-protein kinase Chk1 (Homo sapiens) (UniProt O14757); test: Inhibition of human CHK1 using serine/threonine-07 peptide as substrate at 10 uM incubated for 60 mins in presence of ATP by Z'-LYTE assay
T3 sequence (whole entry): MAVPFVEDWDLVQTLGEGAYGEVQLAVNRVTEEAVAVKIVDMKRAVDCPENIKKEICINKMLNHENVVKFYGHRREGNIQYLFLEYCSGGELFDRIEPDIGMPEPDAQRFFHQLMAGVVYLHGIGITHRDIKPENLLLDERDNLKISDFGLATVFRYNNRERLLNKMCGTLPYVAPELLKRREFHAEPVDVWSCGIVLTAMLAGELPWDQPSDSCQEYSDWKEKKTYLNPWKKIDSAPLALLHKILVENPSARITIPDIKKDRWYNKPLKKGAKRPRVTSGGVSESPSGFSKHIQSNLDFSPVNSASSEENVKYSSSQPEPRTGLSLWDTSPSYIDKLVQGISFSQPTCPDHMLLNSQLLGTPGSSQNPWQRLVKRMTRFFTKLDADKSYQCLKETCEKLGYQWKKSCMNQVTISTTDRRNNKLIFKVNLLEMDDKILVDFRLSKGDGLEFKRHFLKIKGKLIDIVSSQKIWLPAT

[14] = species on record: Homo sapiens; test: Inhibition of recombinant full length human His-tagged CDK1/CyclinB expressed in baculovirus expression system using serine/threonine-18 peptide as substrate at 10 uM incubated for 60 mins in presence of ATP by Z'-LYTE assay
[15] = target: Vascular endothelial growth factor receptor 2 (Homo sapiens) (UniProt P35968); test: Inhibition of recombinant human His-tagged KDR expressed in baculovirus expression system using Tyr-01 peptide as substrate at 10 uM incubated for 60 mins in presence of ATP by Z'-LYTE assay
[16] = target: Serine/threonine-protein kinase MARK1 (Homo sapiens) (UniProt Q9P0L2); test: Inhibition of recombinant human full length GST-tagged MARK1 expressed in baculovirus expression system using serine/threonine-21 peptide as substrate at 10 uM by Z'-LYTE assay; conditions: time 60.0 min
[17] = target: Casein kinase I isoform alpha (Homo sapiens) (UniProt P48729); test: Inhibition of human CSNK1A1 expressed in baculovirus expression system using serine/threonine-11 peptide as substrate at 10 uM incubated for 60 mins in presence of ATP by Z'-LYTE assay
[18] = target: Cyclin-dependent kinase 5/CDK5 activator 1 (Homo sapiens) (UniProt Q00535+Q15078); test: Inhibition of recombinant full length human GST/His-tagged CDK5/p25 expressed in baculovirus expression system using serine/threonine-12 peptide as substrate at 10 uM incubated for 60 mins in presence of ATP by Z'-LYTE assay

`c1ccc(CSc2ncnc3[nH]cnc23)cc1` was tested, and the inhibition [1] was “inactive”, the inhibition [2] was “inactive” and the inhibition [3] was “inactive”. The inhibition [4] was “inactive”, the inhibition [5] was “Active” and the inhibition [6] was “inactive”. The inhibition [7] was “inactive”, the Activity [8] was “Active” and the inhibition [9] was “inactive”. The inhibition [10] was “Active”, the inhibition [11] was “inactive” and the inhibition [12] was “inactive”. The inhibition [13] was “inactive”, the inhibition [14] was “inactive” and the inhibition [15] was “inactive”. For the same compound, the inhibition [16] was “inactive”, the inhibition [17] was “inactive” and the inhibition [18] was “inactive”.

`Clc1cccc(CSc2ncnc3[nH]cnc23)c1` was tested, and the inhibition [1] was “inactive”, the inhibition [2] was “inactive” and the inhibition [3] was “inactive”. For the same compound, the inhibition [4] was “inactive”, the inhibition [5] was “Active” and the inhibition [6] was “inactive”. The inhibition [7] was “inactive”, the Activity [8] was “Active” and the inhibition [9] was “inactive”. The inhibition [10] was “Active”, the inhibition [11] was “inactive” and the inhibition [12] was “inactive”. The inhibition [13] was “inactive”, the inhibition [14] was “inactive” and the inhibition [15] was “inactive”. The inhibition [16] was “inactive”, the inhibition [17] was “inactive” and the inhibition [18] was “inactive”.

In the case of `Brc1ccccc1CSc1ncnc2[nH]cnc12`, the inhibition [1] is reported as “inactive”, the inhibition [2] is reported as “inactive” and the inhibition [3] is reported as “inactive”. The inhibition [4] was “inactive”, the inhibition [5] was “Active” and the inhibition [6] was “inactive”. For the same compound, the inhibition [7] was “inactive”, the Activity [8] was “Active” and the inhibition [9] was “inactive”. For the same compound, the inhibition [10] was “Active”, the inhibition [11] was “inactive” and the inhibition [12] was “inactive”. For the same compound, the inhibition [13] was “inactive”, the inhibition [14] was “inactive” and the inhibition [15] was “inactive”. The inhibition [16] was “inactive”, the inhibition [17] was “inactive” and the inhibition [18] was “inactive”.
